In test [1] the target is T1, G-CSF receptor (Mus musculus, UniProt P40223).
T1 construct: they express endogenous G-CSF receptors; endogenous in cells; host or cells: NFS60 murine myeloid cells with a G-CSF-responsive luciferase reporter
T1 sequence (P40223 26-837): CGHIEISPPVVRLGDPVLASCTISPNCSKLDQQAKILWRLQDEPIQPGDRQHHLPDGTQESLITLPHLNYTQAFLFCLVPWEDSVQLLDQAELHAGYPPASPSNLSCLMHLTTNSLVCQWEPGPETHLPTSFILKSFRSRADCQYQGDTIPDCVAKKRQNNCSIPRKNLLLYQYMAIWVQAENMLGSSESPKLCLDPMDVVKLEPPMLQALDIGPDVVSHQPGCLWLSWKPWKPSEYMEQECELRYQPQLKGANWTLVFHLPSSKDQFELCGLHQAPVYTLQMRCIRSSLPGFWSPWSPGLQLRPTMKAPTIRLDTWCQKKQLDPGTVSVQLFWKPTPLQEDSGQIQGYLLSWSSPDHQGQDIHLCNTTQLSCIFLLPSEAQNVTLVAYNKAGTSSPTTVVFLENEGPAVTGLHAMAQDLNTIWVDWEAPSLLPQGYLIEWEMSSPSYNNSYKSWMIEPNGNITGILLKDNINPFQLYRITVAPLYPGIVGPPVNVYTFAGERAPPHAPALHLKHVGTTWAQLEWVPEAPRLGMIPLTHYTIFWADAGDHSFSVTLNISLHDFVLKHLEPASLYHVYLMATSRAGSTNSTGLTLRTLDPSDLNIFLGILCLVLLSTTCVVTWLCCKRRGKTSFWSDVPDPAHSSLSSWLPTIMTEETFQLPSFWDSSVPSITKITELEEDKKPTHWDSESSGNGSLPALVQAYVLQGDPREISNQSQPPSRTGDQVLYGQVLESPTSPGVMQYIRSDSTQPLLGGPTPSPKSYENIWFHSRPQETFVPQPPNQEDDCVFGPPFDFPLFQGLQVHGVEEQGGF
The test can be described thus: Luciferase reporter gene assay in G-CSF-responsive NFS60 cells. It is filed as cell-based, murine. The conditions noted are these: absence of zinc. The method, then:
Activity of compound 1a is below the threshold of 150% over background. The study was performed as a Luciferase assay configured on the G-CSF-responsive NFS60 cell line as described in Tian et al., Science 281, 257-259 (1998). The experiments shown in FIGS. 2-8 used the same NFS60 cell line.
Compounds of the present invention are tested for potency as agonist of a dimeric cell-surface receptor in a Luciferase reporter gene assay such as described in Tian et al., Science 281. 257-259 (1998). For example, for G-CSF NFS60 cells (Holmes, et al., Proc. Natl. Acad. Sci. USA 82: 6687-6691 (1985)) are selected because they express endogenous G-CSF receptors closely matching the pattern of STAT (signal transducers and activators of transcription) activation observed in primary murine and human bone marrow cells.
A general note: Reporter assays use an easily measured gene product as a stand-in for the process of interest.

Test [2] has as its system peripheral blood neutrophil and monocyte count. The test can be described thus: In vivo evaluation of peripheral blood neutrophil and monocyte count in the mouse. How it is done: Compounds of this invention are also tested for activity in the following assays: CFU-G assay (an example of which is described in King A G, Talmadge J., Badger A M, Pelus L M. Regulation of colony stimulating activity production from bone marrow stromal cells by the hematoregulatory peptide, HP-5. Exp. Hematol. 20:223-228, 1992) and in vivo evaluation of peripheral blood neutrophil and monocyte count in the mouse (an example of which is described in Pelus, L. M.; King, A. G.; Broxmeyer, H. E.; DeMarsh, P. L.; Petteway, S. R.; Bhatnagar, P. K., In vivo modulation of hematopoiesis by a novel hematoregulatory peptide Exp-Hematol. 1994 22(3): 239-47). In order to confirm the requirement for zinc(II) chelation, the above CFU-G assay was also conducted in the presence of EDTA.

Another test concerns the target G-CSF/Fc fusion protein. Put plainly: Isothermal titration microcalorimetry. Type of test: binding. The conditions noted are these: in the presence of zinc. How it is done:
Zinc-mediated affinity of compounds from this invention for dimeric cell-surface receptors (specifically the G-CSF receptor) was measured by isothermal titration microcalorimetry experiments. Titration microcalorimetry detects binding as heat originating from the intrinsic bond forming enthalpy change. In this assay, the compounds were titrated first against zinc(II) alone. In a separate experiment, the compounds were then assayed in the presence of zinc and a dimeric cell-surface receptor/Fc fusion protein (a G-CSF/Fc fusion protein), which contained the extracellular domain of the receptor presented in a dimeric form due to the Fc component.
(Isothermal titration calorimetry measures the heat released or taken up as one component is titrated into another.)

For test [3], the target named is T1, G-CSF receptor. The test can be described thus: Luciferase assay and EDTA (NFS60 cells, with or without metal chlorides). It is filed as cell-based, murine. The note with it: for agonist activity in the presence of EDTA: in the presence of EDTA (FIGS. 3 and 4). How it is done:
FIG. 3 is an analysis of the effect of ethylenediaminetetraacetic acid (as used herein—EDTA) on the activity of Compound 1a (from Example 1) in NFS60 cells. Shown are luciferase response curves of Compound 1a at the indicated concentrations and in the presence of various concentrations of EDTA. […] The media in this assay contained a small amount (1-5 uM) of zinc(II).
FIGS. 7 and 8 show an analysis of the effect of metal chlorides on the EDTA depleted activity of Compound 1a on NFS60 cells. Shown are luciferase response curves as effected by the indicated metal chlorides. […] None of the other metals tested could overcome the inhibitory effect of EDTA.
In order to determine the requisiteness of zinc chelation of small organic molecules to agonist activity at dimeric cell-surface receptors, the above luciferase assay was performed on the G-CSF receptor in the presence of EDTA. EDTA is a strong metal chelator and had as it only effect, the removal of zinc from the ligand-receptor interaction.

For `c1ccc(C23NC(=Nc4nc5ccccc5[nH]4)NC2(c2ccccn2)NC(=Nc2nc4ccccc4[nH]2)N3)nc1` (stereo not shown) [Compound 1a, 2,5-Bis[2-benzimidazolylimino]-3a,6a-bis(2-pyridyl)-1,2,3,3a,4,5,6,6a-octahydroimidazo[4,5-d]imidazole], at G-CSF receptor [1], the “luciferase activity over background” value is given as under 150%. The “peripheral blood neutrophil and monocyte count” value in test [2] is listed as “elevation”. Besides, at G-CSF/Fc fusion protein, the “affinity for the fusion protein construct” value is listed as “submicromolar”. For the same molecule, the “effect of metal chlorides on the EDTA depleted luciferase activity” value on G-CSF receptor [3] (Compound 1a, 50 micromolar EDTA, plus metal chlorides) is “Only zinc (II) at concentrations 0.5-10 micromolar can overcome the inhibition”. On G-CSF receptor [3] (EDTA at 1.2 millimolar, media contained 1-5 uM zinc(II)), the “effect of EDTA on luciferase activity” value is given as “antagonized”. In addition, the “agonist activity in the presence of EDTA” value on G-CSF receptor [3] was “abrogated”.

For the molecule `Cc1ccc2nc(N=C3NC4(c5ccccn5)NC(=Nc5nc6ccccc6[nH]5)NC4(c4ccccn4)N3)[nH]c2c1.O=C(O)C(F)(F)F.O=C(O)C(F)(F)F` (stereo not shown) [Compound 3a, 5-(2-benzimidazolylimino)-2-[(5-methyl-2-benzimidazolyl)imino]-3a,6a-bis(2-pyridyl)-1,2,3,3a,4,5,6,6a-octahydroimidazo[4,5-d]imidazole bis(trifluoroacetate) salt], the “peripheral blood neutrophil and monocyte count” value in test [2] is reported as “elevation”. Besides, the “affinity for the fusion protein construct” value on G-CSF/Fc fusion protein is “submicromolar”.

B1: recombinant G-CSF: the natural ligand (i.e. G-CSF or recombinant G-CSF) of the G-CSF receptor (protein, UniProt P09919 31-207, looked up)
Granulocyte …: TPLGPASSLPQSFLLKCLEQVRKIQGDGAALQEKLVSECATYKLCHPEELVLLGHSLGIPWAPLSSCPSQALQLAGCLSQLHSGLFLYQGLLQALEGISPELGPTLDTLQLDVADFATTIWQQMEELGMAPALQPTQGAMPAFASAFQRRAGGVLVASHLQSFLEVSYRVLRHLAQP
On to B1, for which, in the test with G-CSF receptor [3] (EDTA at both 1.2 and 5 millimolar), the “effect of EDTA on luciferase activity” value is reported as “little effect”. Besides, the “agonist activity in the presence of EDTA” value with G-CSF receptor [3] is given as “not mediated by metal ions”.

Values taken from patent publication US20010014454A1, “NOVEL METAL COMPLEXES” (priority 2000, published 2001).
